Measurements from US6337316B1, “Pharmaceutical compositions thereof, and methods of using same” (Applied Research Systems ARS Holding N.V., priority 1997, dated 2002).
Where two headings read alike, the source gives them in different places. Bridge positions count the residues as written; N and C are the ends. Ends that are not written are not given here. iodoacetamide‑alkyl = not defined here

Columns and labels:
[1] = tested on: lymphocyte proliferation in the human MLR; format: cell-based; conditions: for Human MLR (ability to inhibit lymphocyte proliferation, cpm): peptide 12.5 to 100 μM, assays of 1/24, 1/31, 3/6, 4/17, 5/2, one symbol per assay; for effect on the MLR, retest: two MLRs, peptide by itself, concentrations up to 200 μM; for effect on the human MLR in combination with CTLA-4Ig: CTLA-4Ig spiked in at 0.5 μg/ml (FIG. 8)
Method: Whole blood from donors was obtained from Interstate Blood Bank, Memphis, Tenn. Blood specimens were handled in a biosafety level 2 containment facility as recommended for potentially infectious blood specimens in the CDC/NIH manual Biosafety in Microbiological and Biomedical Laboratories; 3rd edition, 1993, page 10. Peripheral blood mononuclear cells (PBMC) were separated from red blood cells and granulocytes by ficoll-hypaque purification. Whole peripheral blood was diluted 1:2 in PBS and 30 ml was overlayed onto 15 ml of ficoll-hypaque in 50 ml polypropylene tubes. The tubes were spun at 400×g for 30 min at 25° C. Following centrifugation, the interface between the upper plasma layer and the lower ficoll layer was collected, cells washed in RPMI-1640 2×, and viable counts determined using trypan blue. Cells to be used as responders in the assay were stored on ice until mitomycin C treatment of stimulator cells was completed.
PBMC, isolated as described above, to be used as stimulators in the assay were adjusted to 2-4×10^6 cells/ml in complete medium (RPMI 1640 containing 10% heat-inactivated human AB serum, 2 mM glutamine, 50 μM 2-mercaptoethanol and 100 U/ml penicillin-100 μg/ml streptomycin), and treated with mitomycin C (25 μg/ml) for 30 min in a 37° C. water bath. Following treatment, cells were washed with S volumes of complete medium 3×, and viable counts determine using trypan blue. To set up autologous stimulation controls some responder cells were also treated with mitomycin C as mentioned above.
Purified CTLA-4Ig fusion protein was produced, as described in Steurer et al. 1995, from a NS-1 cell line kindly donated by Dr. T. Strom (Beth Israel Hospital, Boston, Mass.) as a 1 mg/ml solution in sterile PBS. The protein was stored frozen at −80° C. Upon thawing, the aliquot was stored at 4° C. Purified peptides were lyophilized according to known procedures. Peptides were reconstituted in sterile PBS, pH 7.4 at 2 mM concentration, aliquoted in microfuge cubes and stored frozen at −20° C. For the assay, an aliquot of the peptide was thawed and diluted to 200 μM in complete medium.
For the one-way allogeneic mixed lymphocyte response (MLR) assay, responder cells were plated at 10^6 cells/well, and stimulator cells at 5×10^4 cells/well in 96-well round bottom plates. Cells were incubated with serial dilutions of the anti-CD4 Ab Leu 3A (1 μg/ml-0.06 μg/ml) in triplicate, or an isotype-matched control Ab. Cyclosporin A at 1 μg/ml was used as an additional control.
CTLA-4 Ig was serially diluted an.4 tested from 10 μg/ml to 0.15 μg/ml. Peptides were tested either directly or in the presence of a constant spiked-in dose of CTLA-4 Ig at 0.5 μg/ml. The plates were incubated at 37° C. in a humidified 5% CO2 atmosphere for 7 days.
Proliferation of the cells was determined by pulsing the wells with ^3H-Tdr (1 μCi/well) for the last 18 h of the assay. Plates were harvested using a Tomtec -late harvester and the counts incorporated determined using a Wallac microbetaplate plus reader.
A total of 34 peptides were tested for inhibition of lymphocyte proliferation in the human MLR. Each peptide was tested in a MLR at doses ranging from 12.5 to 100 μM. The activity of each peptide was identified by assigning a + and − tone peptide depending on its ability to inhibit lymphocyte proliferation in the MLR (cpms).

[2] = tested on: binding of CTLA-4Ig to B7 on Cess B cells; test: CTLA-4Ig/B7 binding assay on Cess B cells by FACS; parameters: key to Binding Assay (effect on CTLA-4Ig binding to Cess B cells): −: no change in binding; +: a minor change of <10% in binding; ++: a change of >20% in binding; conditions: for Binding Assay (effect on CTLA-4Ig binding to Cess B cells): FACS, assays of 3/24, 3/25, 4/5, 4/25, one symbol per assay; for effect on CTLA-4Ig binding, retest in the Cess B binding assay: retest of positives from primary screening
Method: +++ was assigned if the peptide tested gave >50% change in cpm in a dose dependent fashion. In addition to the MLR, these 34 peptides were also evaluated in a CTLA-4Ig/B7 binding assay in which the ability of these peptides to affect the binding of CTLA-4Ig to B7 on Cess B cells was examined by FACS analysis.
As with the MLR, a + or − was assigned to each peptide depending on its ability to effect CTLA-4Ig binding to Cess B cells; where − represents no change in binding, + represents a minor change of <10% in binding, and a ++ represents a change of >20% in binding.

Substance: CKYSYNLFSREFC (disulfide 1-13 (inferred)) [AT 107.1]
- Human MLR (ability to inhibit lymphocyte proliferation, cpm) [1]: −, +, +, −

Substance: CKIEVMYPPPYLC (disulfide 1-13 (inferred)) [AT 114.1]
- Human MLR (ability to inhibit lymphocyte proliferation, cpm) [1]: Toxic
- Binding Assay (effect on CTLA-4Ig binding to Cess B cells) [2]: Toxic

Substance: CMYPPPYYRGGKC (disulfide 1-13 (inferred)) [AT 129.1]
- Human MLR (ability to inhibit lymphocyte proliferation, cpm) [1]: −, −
- Binding Assay (effect on CTLA-4Ig binding to Cess B cells) [2]: ++ (a change of >20% in binding)

Substance: CMYPPPYKAKC (disulfide 1-11 (inferred)) [AT 112.1]
- Human MLR (ability to inhibit lymphocyte proliferation, cpm) [1]: − (all concentrations of peptide tested gave <15% change in cpm)
- Binding Assay (effect on CTLA-4Ig binding to Cess B cells) [2]: −, −

Substance: HVAQPA [AT 136.1]
- Human MLR (ability to inhibit lymphocyte proliferation, cpm) [1]: ++, +, −
- effect on the MLR, retest [1]: none of these peptide by themselves had any consistent effect
- Binding Assay (effect on CTLA-4Ig binding to Cess B cells) [2]: +++, +
- effect on CTLA-4Ig binding, retest in the Cess B binding assay [2]: no effect

Substance: AT 199.2B: AT 199 treated with iodoacetamide, purely linear analog with alkylated cysteines (RKC(iodoacetamide‑alkyl)LMYPPPYYC(iodoacetamide‑alkyl)HH; not fully specified (C-terminus); reading uncertain)
- effect on the human MLR in combination with CTLA-4Ig [1]: no effect
- inhibition of the MLR, in words ([1]; control and linear peptides compared with AT 199): no effect
- inhibition of the human MLR ([1]; the MLR's, highest concentration (100 μM) tested): < 10%

Substance: ECASPGKATEVC (not fully specified (bridges); cysteine pairing not given here) [AT 118.1]
- Human MLR (ability to inhibit lymphocyte proliferation, cpm) [1]: − (all concentrations of peptide tested gave <15% change in cpm)

Substance: NECTFCDD (not fully specified (bridges); cysteine pairing not given here) [AT 197.1]
- Human MLR (ability to inhibit lymphocyte proliferation, cpm) [1]: −, −, −
- Binding Assay (effect on CTLA-4Ig binding to Cess B cells) [2]: −, −, −

Substance: CEYASPGKATEVC (disulfide 1-13 (inferred)) [AT 123.1]
- Human MLR (ability to inhibit lymphocyte proliferation, cpm) [1]: −, −
- Binding Assay (effect on CTLA-4Ig binding to Cess B cells) [2]: +/−, −

Substance: ADSQVTEV-OH [AT 124.1]
- Human MLR (ability to inhibit lymphocyte proliferation, cpm) [1]: −, −
- Binding Assay (effect on CTLA-4Ig binding to Cess B cells) [2]: +, −

Substance: AT 199.2A: resynthesis of AT 199.1, refolding prolonged to 5 days at pH 10.0; fully cyclized version (RKCLMYPPPYYCHH; disulfide 3-12 (inferred); not fully specified (C-terminus))
- inhibition of the human MLR ([1]; 100 μM, another MLR): 25%
- inhibition of the human MLR ([1]; 100 μM, one MLR): 50%
- effect on the human MLR in combination with CTLA-4Ig [1]: additive

Substance: CSKTGFNC (disulfide 1-8 (inferred)) [AT 115.1]
- Human MLR (ability to inhibit lymphocyte proliferation, cpm) [1]: − (all concentrations of peptide tested gave <15% change in cpm)
- Binding Assay (effect on CTLA-4Ig binding to Cess B cells) [2]: −

Substance: KYLVKQS-OH [AT 122.1]
- Human MLR (ability to inhibit lymphocyte proliferation, cpm) [1]: −, −
- Binding Assay (effect on CTLA-4Ig binding to Cess B cells) [2]: +, −

Substance: CSPNQC (disulfide 1-6 (inferred)) [AT 135.1]
- Human MLR (ability to inhibit lymphocyte proliferation, cpm) [1]: +/−, −
- effect on the MLR, retest [1]: none of these peptide by themselves had any consistent effect
- Binding Assay (effect on CTLA-4Ig binding to Cess B cells) [2]: ++ (a change of >20% in binding)
- effect on CTLA-4Ig binding, retest in the Cess B binding assay [2]: no effect

Substance: KILVKQS-OH [AT 121.1]
- Human MLR (ability to inhibit lymphocyte proliferation, cpm) [1]: +/−, −

Substance: KYLVKQS [AT 120.1]
- Human MLR (ability to inhibit lymphocyte proliferation, cpm) [1]: −, +/−
- Binding Assay (effect on CTLA-4Ig binding to Cess B cells) [2]: −

Substance: CMYPPYLRGGKC (disulfide 1-12 (inferred)) [AT 109.1]
- Binding Assay (effect on CTLA-4Ig binding to Cess B cells) [2]: −, +

Substance: CDDSIC (disulfide 1-6 (inferred)) [AT 131.1]
- Human MLR (ability to inhibit lymphocyte proliferation, cpm) [1]: +, −, −
